Results from publication PMC12627232 (MedComm, 2025).

Assays:
B16F10 syngeneic model = assay: B16F10 syngeneic model; format: in vivo; settings: C57BL/6J mice, HDAC inhibitors by oral gavage, anti-PD-L1 intraperitoneal, 7-day treatment
Experimental: With the approval of the ethics committee of Shandong University, C57BL/6J mice were purchased from Charles River and fed in SPF conditions at the Model Animal Research Centre of Shandong University. To establish the B16F10 syngeneic model, cells in logarithmic growth phase were trypsinized with 0.25% trypsin, resuspended in sterile PBS, and adjusted to 1 × 10^6 cells/100 µL. The cell suspension (100 µL) was subcutaneously injected into the left axilla. When tumors reached to certain volume, mice were randomized (n = 5/group) and treated with Chidamide, LBH‐589, or SDFZ‐8 by oral gavage and intraperitoneal injection of anti‐PD‐L1. Tumor growth curves were plotted over a 7‐day treatment cycle. All procedures complied with AAALAC International guidelines for humane endpoint criteria.

HDAC3/NCOR1 complex = assay: HDACs enzymatic assay HDAC3; format: biochemical; settings: Class I; mean ± SD of three
Experimental: HDACs enzymatic assays were conducted according to our previous work. […] Substrates (Boc‐Lys(acetyl)‐AMC for HeLa nuclear extract, Ac‐Leu‐Gly‐Lys (Tfa)‐AMC for HDAC4, HDAC5, HDAC6, HDAC7, HDAC9, HDAC10, and HDAC11, Boc‐Lys(triflouroacetyl)‐AMC for HDAC8 and Ac‐Leu‐Gly‐Lys(acetyl)‐AMC for HDAC1, HDAC2, HDAC3) were added to the mixture. The blank group was set to no enzyme or drug but contains substrates and the control group was set to no drug but contains substrates and enzymes to each 96‐well plate. After 30 min of incubation at 37°C, the mixture was terminated with 1 mg/mL trypsin and 3 µM TSA. After another 30 min, the fluorescence intensity was measured using a Varioskan plate reader at 360/460 nm. […] The inhibition curves and IC50 values were simulated and calculated using the log(inhibitor) versus response (three parameters) mode in GraphPad Prism software.

MDA-MB-231 xenograft = MDA-MB-231 xenograft model; format: in vivo, BALB/c-nu mice; settings: MDA-MB-231 xenograft, BALB/c-nu mice, 60 mg/kg/day oral gavage, 22 days
Experimental: BALB/c‐nu mice were obtained from Pengyue Co. Ltd. (Jinan, China) and were fed in laminar flow cabinets under specific pathogen‐free (SPF) conditions. With the approval of ethics committee of Shandong University, the animal experiments were conducted. To establish the MDA‐MB‐231 xenograft model, BALB/c‐nu mice (3–4 weeks old and 15–18 g body weight, male) were selected and injected subcutaneously into the armpits with 1.2 × 10^7 MDA‐MB‐231 cells. […] Body weight and tumor size were measured every 3 days during the 22‐day treatment.

MC38 syngeneic model = assay: MC38 syngeneic model; format: in vivo; settings: C57BL/6J mice, SDFZ-8 60 mg/kg qd i.g., 14-day treatment
Experimental: C57BL/6J mice were obtained from HFK Bioscience (Beijing, China) and fed in laminar flow cabinets under SPF conditions. With the approval of the ethics committee of Shandong University, the animal experiments were conducted. […]. By the time tumors reached certain volumes, SDFZ‐8 treatment (SDFZ‐8 in PBS solution containing 5% DMSO, 60 mg/kg, qd, i.g.) was started, with five animals per treatment group. Body weight and tumor size were measured every day during the 14‐day treatment.

MDA-MB-231 cells = assay: Western blotting (immunoblotting); format: cell-based, human; settings: 24 h, western blotting
Source text: Anti‐H3 (#13998), anticleaved Caspase‐3 (#9661) and anti‐PARP (#9542) antibody was purchased from Cell Signal Technology (CST). Anti‐Caspase‐3 (T40044) was brought from Abmart. Antitubulin antibody (ab179484) was obtained from Abcam PLC. Anti‐Bcl‐2 (F0125) and anti‐Bax (F0037) antibody were purchased from Selleck Chemicals. Anti‐GAPDH antibody (AF1186) was obtained from Beyotime Inc. The protocol of Western blotting was the same as our previous works. In brief, 2.5 × 10^5 MDA‐MB‐231 cells were treated with different drugs or DMSO (equal volume to experimental groups) for 24 h and lysed with modified RIPA buffer. The cell lysates were added to loading buffer (Beyotime #P0015L) and heated in boiling water for 5 mins and then, together with biomarker (Epizymebiotech; 15–250 kDa), were electrophoresed in SDS‐PAGE gels under 80 V voltage until the biomarker reached the end of gels. Next, SDS‐PAGE gels and PVDF membrane were clipped together to perform transmembrane procedure under 350 mA currency for 1 h. Then after incubation with 5% skim milk, TBST, primary antibody and secondary antibody, the PVDF membrane was treated with ECL chemiluminescence solution (Boster Biological Technology #AR1174) and imaged by the imager (Imager 680 Amersham Imager).

[1] = test system: immune cells of MC38 syngeneic model; assay: Flow cytometry of tumor-infiltrating and spleen immune cells, MC38 model; format: in vivo, C57BL/6J mice
Experimental: After 14 days, the tumors and spleens were split, and cells were isolated to analyze the change in cancer immunity. For TILs, the tumors were incubated with the tumor digestion fluid (collagenase and hyaluronic acid included) and then filtered with a 200‐gauge mesh and centrifuged (100×g, 1 min). The supernatant was centrifuged (400×g, 5 min) and precipitated cells were purified by 40% percoll solution followed by RBC lysis and washing. For splenocytes, the spleen was passed through a 200‐gauge mesh, and splenocytes were collected after RBC lysis and washing.
The prepared cell suspensions were incubated with rat serum at room temperature for 30 min to block the FC‐receptor and incubated with fluorescent antibodies at 4°C for 1 h. For Foxp3 staining, Foxp3/Transcription Factor Staining Buffer Set (eBioscience; #00‐5523‐00) was used. For intracellular cytokines staining, cells were pre‐stimulated with 1 µg/mL ionomycin (Beyotime; #S1672), 50 ng/mL PMA (Sigma; #P1585) and Brefeldin A (BioLegend; #420601) for 4 h. Flow cytometry was conducted with FACS Celesta (BD Biosciences, USA) and analyzed with FlowJo software.

`Nc1cc(F)ccc1NC(=O)c1ccc(CNC(=O)/C=C/c2cccnc2)cc1` [Chidamide, reference compound] showed a TGI (B16F10 syngeneic model) of 58%.

For `Cc1[nH]c2ccccc2c1CCNCc1ccc(/C=C/C(=O)NO)cc1` [LBH-589, reference compound], the TGI (B16F10 syngeneic model) was 53%.

For `O=C(CCCCCCC(=O)Nc1ccccc1)NO` [SAHA, Vorinostat, reference compound], the IC50 (HDAC3/NCOR1 complex) was 45 ± 20 nM, the TGI (MDA-MB-231 xenograft) was 60% and the TGI (MC38 syngeneic model) was 50%. The “level of acetylated histone H3 (Ac-H3)” value (MDA-MB-231 cells) was “upregulation”, the “level of acetylated tubulin (Ac-tubulin)” value (MDA-MB-231 cells) was “upregulation” and the “PD-L1 and PD-1 expression in tumor-infiltrating immune cells” value [1] was “upregulated”. For the same molecule, the “surface expression of MHC class II in DCs and macrophages” value [1] was “only impacted MHC II in DCs”, the “M2 polarization of TAMs” value ([1]; CD206 marker) was “suppressed” and the “M1 polarization of TAMs” value ([1]; iNOS marker) was “robustly promoted”. The “PD-1 expression in spleen CD4+ T cells and NK cells” value ([1]; spleen) was “downregulated”, the “PD-L1 expression in spleen DCs and macrophages” value ([1]; spleen) was “upregulated” and the “proportion of CD4+ T cells, CD8+ T cells and NK cells in the spleen” value ([1]; spleen) was “did not induce such effects”. The “expression of IFN-γ and TNF-α in CD4+ T cells and CD8+ T cells” value ([1]; tumor) was “upregulation”.

Molecule atezolizumab [anti-PD-L1] has a TGI (B16F10 syngeneic model) of 62%.
